Experimental data reported in patent publication US11873295B2, “Allosteric chromenone inhibitors of phosphoinositide 3-kinase (PI3K) for the treatment of disease” (Petra Pharma Corporation, priority 2021, dated 2024).

Assays:
[1] = system: PI3K-α (PIK3CA) in MDA-MB-453 cells; assay: PI3K-alpha kinase (PIK3CA) activity in vitro cell based assay, MDA-MB-453 cells, AlphaLisa SureFire; settings: Homo sapiens, MDA-MB-453, 3 h, 0% FBS, 3 hours treatment, relative IC50
Procedure, shortened: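 MDA-MB-453 cells in serum-free MEM with 1 μg/mL insulin treated 3 h with 10-point 1:3 compound dilutions, 0.3% DMSO. Lysates read by AlphaLisa SureFire; percent inhibition relative to DMSO (max) and 1 μM GDC-0032 (min), duplicate means fitted to 4-parameter logistic for relative IC50.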

[2] = target: T1, human full length PIK3KA Wild-type (p110α/p85α complex) (Homo sapiens, UniProt P42336); assay: PI3K-alpha kinase (PIK3CA) biochemical activity, wild-type, ADP-Glo; settings: PI3K-α (PIK3CA) biochemical, Soy PI lipid substrate
T1 construct: Recombinant, catalytically active human full length PIK3KA Wild-type and H1047R mutant were purchased as 1:1 complex; 6xHis (N); purchased EMD Millipore Sigma 14-602M
Procedure, shortened: (§1)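 ADP formation, read by ADP-Glo, is run to about 10% ATP turnover at 27 °C with 20 μM ATP and 50 μM PIP2diC8 or soy PI. WT or H1047R p110α/p85α (1–5 nM) is pre-incubated 1 h with compound in HEPES pH 7.4/MgCl2/Triton buffer, 1% DMSO. 10-point 1:3 series, logistic IC50 versus no-enzyme and DMSO controls.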

[3] = target: T2, human full length PIK3KA H1047R mutant (p110α/p85α complex) (Homo sapiens, UniProt P42336, H1047R); assay: PI3K-alpha kinase (PIK3CA) biochemical activity, H1047R mutant, ADP-Glo; settings: PI3K-α (PIK3CA) biochemical, H1047R mutant, Soy PI lipid substrate
T2 construct: Recombinant, catalytically active human full length PIK3KA Wild-type and H1047R mutant were purchased as 1:1 complex; 6xHis (N); purchased EMD Millipore Sigma 14-792M
T2 sequence (P42336 whole entry H1047R): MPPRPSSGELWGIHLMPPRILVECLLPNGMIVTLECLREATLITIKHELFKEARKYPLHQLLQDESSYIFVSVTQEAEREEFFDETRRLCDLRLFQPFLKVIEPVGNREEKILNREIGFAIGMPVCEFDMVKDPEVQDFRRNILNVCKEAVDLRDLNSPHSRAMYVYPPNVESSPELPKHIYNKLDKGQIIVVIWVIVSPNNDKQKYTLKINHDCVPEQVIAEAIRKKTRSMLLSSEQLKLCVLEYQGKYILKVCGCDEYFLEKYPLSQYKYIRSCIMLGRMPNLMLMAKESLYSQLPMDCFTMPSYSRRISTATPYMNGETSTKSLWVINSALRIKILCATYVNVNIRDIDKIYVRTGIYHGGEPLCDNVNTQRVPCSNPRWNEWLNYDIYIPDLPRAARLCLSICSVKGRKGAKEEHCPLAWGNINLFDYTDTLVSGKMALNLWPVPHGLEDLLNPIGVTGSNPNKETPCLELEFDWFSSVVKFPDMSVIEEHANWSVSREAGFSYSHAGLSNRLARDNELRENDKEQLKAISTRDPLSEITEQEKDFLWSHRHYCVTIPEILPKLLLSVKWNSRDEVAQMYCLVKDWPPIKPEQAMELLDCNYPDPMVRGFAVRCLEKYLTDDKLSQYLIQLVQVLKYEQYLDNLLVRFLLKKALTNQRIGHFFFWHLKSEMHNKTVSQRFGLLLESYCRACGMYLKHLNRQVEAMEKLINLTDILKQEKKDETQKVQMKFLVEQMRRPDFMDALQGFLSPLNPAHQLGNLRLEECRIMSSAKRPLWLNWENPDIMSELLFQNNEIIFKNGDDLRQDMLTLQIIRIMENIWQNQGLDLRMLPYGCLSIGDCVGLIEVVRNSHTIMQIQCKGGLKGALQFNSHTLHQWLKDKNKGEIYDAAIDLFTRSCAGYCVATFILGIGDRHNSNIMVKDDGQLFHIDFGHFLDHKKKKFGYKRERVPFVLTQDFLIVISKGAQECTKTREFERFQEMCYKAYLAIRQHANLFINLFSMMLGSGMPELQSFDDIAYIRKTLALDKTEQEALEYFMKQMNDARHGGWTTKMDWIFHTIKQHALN
T2 sequence (P27986 whole entry partner): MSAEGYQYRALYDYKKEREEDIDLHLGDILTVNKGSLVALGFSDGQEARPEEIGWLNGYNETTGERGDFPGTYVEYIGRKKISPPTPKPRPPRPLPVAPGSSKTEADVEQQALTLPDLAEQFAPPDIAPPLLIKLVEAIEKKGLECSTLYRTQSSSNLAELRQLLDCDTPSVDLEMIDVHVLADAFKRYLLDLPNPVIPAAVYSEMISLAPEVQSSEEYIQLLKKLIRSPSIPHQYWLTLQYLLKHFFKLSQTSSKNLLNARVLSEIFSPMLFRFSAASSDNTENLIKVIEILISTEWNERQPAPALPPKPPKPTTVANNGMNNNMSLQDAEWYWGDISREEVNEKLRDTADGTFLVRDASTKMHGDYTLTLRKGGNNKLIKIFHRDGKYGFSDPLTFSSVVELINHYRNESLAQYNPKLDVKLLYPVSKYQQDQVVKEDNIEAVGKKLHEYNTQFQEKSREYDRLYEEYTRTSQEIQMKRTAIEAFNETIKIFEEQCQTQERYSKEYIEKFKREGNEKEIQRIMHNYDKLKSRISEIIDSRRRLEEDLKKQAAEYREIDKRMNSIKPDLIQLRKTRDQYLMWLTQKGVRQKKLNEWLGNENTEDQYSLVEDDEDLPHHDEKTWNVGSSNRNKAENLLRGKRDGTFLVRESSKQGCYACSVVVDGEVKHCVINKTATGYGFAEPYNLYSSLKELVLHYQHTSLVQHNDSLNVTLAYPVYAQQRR
Procedure, shortened: as §1

Row | IC50 [1] | IC50 [2] | IC50 [3] | Compound
1 | < 50 nM | 500 to 1000 nM | < 500 nM | Cc1cc([C@@H](C)Nc2ccccc2C(=O)O)c2oc(-c3ccc(-c4cn[nH]c4)cc3)c(C)c(=O)c2c1 [Example 162, 2-[[(1R)-1-[3,6-Dimethyl-4-oxo-2-[4-(1H-pyrazol-4-yl)phenyl]chromen-8-yl]ethyl]amino]benzoic acid]
2 | 50 to 100 nM | 1000 to 5000 nM | 500 to 1000 nM | Cc1cc([C@@H](C)Nc2ccccc2C(=O)O)c2oc(-c3ccc(-c4cn[nH]c4)cc3)cc(=O)c2c1 [Example 163, 2-[[(1R)-1-[6-Methyl-4-oxo-2-[4-(1H-pyrazol-4-yl)phenyl]chromen-8-yl]ethyl]amino]benzoic acid]
3 | < 50 nM | < 500 nM | < 500 nM | Cc1cc([C@@H](C)Nc2ccccc2C(=O)O)c2oc(-c3ccc(-c4cnn(C)c4)cc3)c(C)c(=O)c2c1 [Example 164, 2-[[(1R)-1-[3,6-Dimethyl-2-[4-(1-methylpyrazol-4-yl)phenyl]-4-oxo-chromen-8-yl]ethyl]amino]benzoic acid]
4 | < 50 nM | 1000 to 5000 nM | < 500 nM | Cc1cc([C@@H](C)Nc2ccccc2C(=O)O)c2oc(-c3ccc(-c4c(C)n[nH]c4C)cc3)c(C)c(=O)c2c1 [Example 165, 2-[[(1R)-1-[2-[4-(3,5-Dimethyl-1H-pyrazol-4-yl)phenyl]-3,6-dimethyl-4-oxo-chromen-8-yl]ethyl]amino]benzoic acid]
5 | < 50 nM | 1000 to 5000 nM | 500 to 1000 nM | Cc1cc([C@@H](C)Nc2ccccc2C(=O)O)c2oc(-c3cccc(-c4cc[nH]n4)c3)c(C)c(=O)c2c1 [Example 166, 2-[[(1R)-1-[3,6-Dimethyl-4-oxo-2-[3-(1H-pyrazol-3-yl)phenyl]chromen-8-yl]ethyl]amino]benzoic acid]
6 | < 50 nM | 500 to 1000 nM | < 500 nM | Cc1cc([C@@H](C)Nc2ccccc2C(=O)O)c2oc(-c3cccc(-c4cn[nH]c4)c3)c(C)c(=O)c2c1 [Example 167, 2-[[(1R)-1-[3,6-Dimethyl-4-oxo-2-[3-(1H-pyrazol-4-yl)phenyl]chromen-8-yl]ethyl]amino]benzoic acid]
7 | < 50 nM | 500 to 1000 nM | < 500 nM | Cc1cc([C@@H](C)Nc2ccccc2C(=O)O)c2oc(-c3ccc(-c4ccn[nH]4)cc3)c(C)c(=O)c2c1 [Example 168, 2-[[(1R)-1-[3,6-Dimethyl-4-oxo-2-[4-(1H-pyrazol-5-yl)phenyl]chromen-8-yl]ethyl]amino]benzoic acid]
8 | > 500 nM | > 10000 nM | 500 to 1000 nM | Cc1cc([C@@H](C)Nc2ccccc2C(=O)O)c2oc(-c3ccccc3)c(NCCC(=O)O)c(=O)c2c1 [Example 171, 2-[[(1R)-1-[3-(2-Carboxyethylamino)-6-methyl-4-oxo-2-phenyl-chromen-8-yl]ethyl]amino]benzoic acid 2,2,2-trifluoroacetic acid]
